Experimental data taken from patent US20120088664A1, “Antifungal 1,2,4-triazolyl derivatives having a 5-sulfur subtituent” (BASF SE, priority 2009, published 2012).

Columns and labels:
Phytophthora infestans = format: in vivo; conditions: 300 ppm active compound, tomato plants sprayed to run-off, inoculated next day, assessed after 6 days; untreated plants 90% infected
Botrytis cinerea = test: Preventative control of grey mold (Botrytis cinerea) on leaves of green pepper (greenhouse test); format: in vivo; conditions: 300 ppm active compound, green pepper seedlings sprayed to run-off, inoculated next day, assessed after 5 days; untreated plants 90% infected

## CC(C)(C)C(O)(CCc1ccc(Cl)cc1Cl)Cn1nc[nH]c1=S (stereo not shown) [Example 1, 1-(2-(2,4-dichlorophenethyl)-2-hydroxy-3,3-dimethylbutyl)-1H-1,2,4-triazole-5(4H)-thione]
Phytophthora infestans
  infection (fungal attack on the leaves visually assessed as % diseased leaf area): 15%

## CC(C)(C)C(O)(CCc1ccc(F)cc1F)Cn1nc[nH]c1=S (stereo not shown) [Example 2, 1-(2-(2,4-Difluorophenethyl)-2-hydroxy-3,3-dimethylbutyl)-1H-1,2,4-triazole-5(4H)-thione]
other
  melting point: 130 to 132 °C

## CC(C)(C)C(O)(CCc1ccc(Cl)c(Cl)c1)Cn1nc[nH]c1=S (stereo not shown) [Example 3, 1-(2-(3,4-Dichlorophenethyl)-2-hydroxy-3,3-dimethylbutyl)-1H-1,2,4-triazole-5(4H)-thione]
other
  melting point: 155 to 157 °C

## CC(C)(C)C(O)(CCc1ccc(F)cc1)Cn1nc[nH]c1=S (stereo not shown) [Example 4, 1-(2-(4-Fluorophenethyl)-2-hydroxy-3,3-dimethylbutyl)-1H-1,2,4-triazole-5(4H)-thione]
other
  melting point: 134 to 135 °C
Botrytis cinerea
  infection (fungal attack on the leaves visually assessed as % diseased leaf area): 7%

## Cc1ccc(CCC(O)(Cn2nc[nH]c2=S)C(C)(C)C)cc1 (stereo not shown) [Example 5, 1-(2-hydroxy-3,3-dimethyl-2-(4-methylphenethyl)butyl)-1H-1,2,4-triazole-5(4H)-thione]
other
  melting point: 137 to 138 °C

## CC(C)(C)C(O)(CCc1ccc(C(F)(F)F)cc1)Cn1nc[nH]c1=S (stereo not shown) [Example 6, 1-(2-Hydroxy-3,3-dimethyl-2-(4-(trifluoromethyl)phenethyl)butyl)-1H-1,2,4-triazole-5(4H)-thione]
other
  melting point: 139 to 140 °C
